This note sets out measurements from ChEMBL document CHEMBL1201862, “PubChem BioAssay data set” (2004).

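Five concentrations, 48 hours, 96-well plates. GI50 is the concentration that inhibits growth by half.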 Calls of active or inactive are those of the source. Cut-off read from the data, not from the text of the source: active = GI50 up to about 1.1 µM and inactive = higher.

Test systems include LOX IMVI; SK-MEL-2; MOLT-4; TK-10; SK-OV-3; Malme-3M; SNB-19; A549; KM12; HOP-92; MDA-MB-435; RPMI-8226; OVCAR-8; NCI-H23; IGROV-1; NCI/ADR-RES; HL-60; HT-29; NCI-H522.
Common to all, as to assay: NCI-60 cell line screen, 48 h

For the compound `Oc1nncc2[nH]c(-c3ccccc3)cc12`, the GI50 with LOX IMVI is 66.1 µM (inactive); in the experiment with SK-MEL-2, 29.6 µM (inactive); in the experiment on MOLT-4 it was 17 µM (inactive); in the experiment with TK-10, 39.4 µM (inactive); in the experiment on SK-OV-3, 63.7 µM (inactive); in the experiment with Malme-3M it was 56.9 µM (inactive). Moreover, the GI50 with SNB-19 was > 100 µM (inactive); in the experiment on A549, 49.3 µM (inactive); with KM12, 35.1 µM (inactive); in the experiment on HOP-92, > 100 µM (inactive); with MDA-MB-435, 28.2 µM (inactive); in the experiment with RPMI-8226, 56.4 µM (inactive). Besides, the GI50 in the experiment with OVCAR-8 was 78.7 µM (inactive); in the experiment with NCI-H23 it was 48.9 µM (inactive); in the experiment with IGROV-1, > 100 µM (inactive); in the experiment on NCI/ADR-RES, 25.2 µM (inactive); in the experiment on HL-60, 71.9 µM (inactive); with HT-29, 36.4 µM (inactive).
Consider `O=c1c2c3c(sc2nc2n1N=C(c1ccc(Br)cc1)CS2)CCCC3`, for which the GI50 in the experiment with LOX IMVI, in the experiment on MOLT-4, in the experiment on TK-10, in the experiment with SK-OV-3, in the experiment with Malme-3M and in the experiment with SNB-19 was > 100 µM (inactive) each time. Also, the GI50 with A549, with KM12, in the experiment with HOP-92, in the experiment with MDA-MB-435, in the experiment on OVCAR-8 and in the experiment on NCI-H23 was > 100 µM (inactive) in each case. The GI50 in the experiment with NCI-H522, in the experiment on IGROV-1, in the experiment with NCI/ADR-RES, in the experiment on HL-60 and in the experiment on HT-29 was > 100 µM (inactive) in each case.
For `N=C(N)c1ccc2oc3ccc(C(=N)N)cc3c(=O)c2c1`, the GI50 in the experiment with SK-MEL-2 was > 100 µM (inactive); with MOLT-4, > 100 µM (inactive); in the experiment on TK-10, > 100 µM (inactive); with Malme-3M, 98.2 µM (inactive); with SNB-19, > 100 µM (inactive); in the experiment with A549 it was > 100 µM (inactive). For the same compound, the GI50 in the experiment on KM12, with HOP-92, in the experiment with MDA-MB-435, in the experiment on RPMI-8226, in the experiment on OVCAR-8 and in the experiment with NCI-H23 was > 100 µM (inactive) each time. Also, the GI50 with NCI-H522, with IGROV-1, in the experiment on NCI/ADR-RES, in the experiment with HL-60 and in the experiment with HT-29 was > 100 µM (inactive) throughout.
Turning to `CC(C)=CC(=O)C1c2cccc(O)c2C(=O)c2c(O)cc(C)cc21` (stereo unspecified), the GI50 in the experiment on LOX IMVI is 1.86 µM (inactive); with SK-MEL-2 it was 1.98 µM (inactive); with MOLT-4, 4.23 µM (inactive); with TK-10 it was 2.42 µM (inactive); in the experiment with SK-OV-3, 2.81 µM (inactive); with Malme-3M, 2.76 µM (inactive). Further, the GI50 was 2.12 µM (inactive) with SNB-19; 1.92 µM (inactive) in the experiment on A549; 1.63 µM (inactive) with KM12; 2.75 µM (inactive) with HOP-92; 3.61 µM (inactive) in the experiment on RPMI-8226; 2.81 µM (inactive) in the experiment with OVCAR-8. The GI50 was 2.44 µM (inactive) with NCI-H23; 2 µM (inactive) in the experiment on NCI-H522; 2.09 µM (inactive) with IGROV-1; 3.24 µM (inactive) in the experiment on HL-60; 6.97 µM (inactive) with HT-29.
Regarding `Cc1nc2ccccc2c(=O)n1NC(=S)Nc1ccccc1`, the GI50 in the experiment on LOX IMVI, in the experiment on SK-MEL-2, in the experiment with MOLT-4, with TK-10, in the experiment with SK-OV-3 and in the experiment on Malme-3M was > 100 µM (inactive) each time. Moreover, the GI50 in the experiment on A549 was > 100 µM (inactive); in the experiment on KM12 it was > 100 µM (inactive); in the experiment with HOP-92, 85.1 µM (inactive); in the experiment on RPMI-8226, > 100 µM (inactive); in the experiment with OVCAR-8, > 100 µM (inactive); with NCI-H23, 84.3 µM (inactive). The GI50 in the experiment on NCI-H522, with IGROV-1, in the experiment on HL-60 and with HT-29 was > 100 µM (inactive) each time.
On to `COc1ccc(NC(=O)c2cc(OC)cc(OC)c2)cc1`, for which the GI50 in the experiment with LOX IMVI is 17.6 µM (inactive); with SK-MEL-2, 25.9 µM (inactive); in the experiment with MOLT-4 it was 14.8 µM (inactive); with TK-10, 43.7 µM (inactive); in the experiment on SK-OV-3, 31.4 µM (inactive); with Malme-3M, 36.6 µM (inactive). Moreover, the GI50 in the experiment on SNB-19 is > 60.8 µM (inactive); with A549, 12.1 µM (inactive); with KM12, 4.49 µM (inactive); in the experiment with HOP-92, > 100 µM (inactive); with RPMI-8226, 18 µM (inactive); in the experiment on OVCAR-8, 80.5 µM (inactive). The GI50 with NCI-H23 was 41.1 µM (inactive); in the experiment with NCI-H522, 13.6 µM (inactive); with IGROV-1, 28 µM (inactive); with HL-60, 6.98 µM (inactive); in the experiment with HT-29, 4.49 µM (inactive).
Regarding `COc1cc([C@@H]2c3cc4c(cc3[C@@H](NC(=O)c3ccc(N)cc3)C3COC(=O)[C@@H]32)OCO4)cc(OC)c1O` (stereo partly specified), the GI50 is 1.45 µM (inactive) in the experiment on LOX IMVI; 7.74 µM (inactive) in the experiment on SK-MEL-2; 0.0375 µM (active) with MOLT-4; 9.68 µM (inactive) with TK-10; 2.14 µM (inactive) in the experiment on SK-OV-3; 2.51 µM (inactive) in the experiment on Malme-3M. In addition, the GI50 in the experiment on SNB-19 was 1.34 µM (inactive); in the experiment with A549, 0.119 µM (active); with KM12 it was 2.65 µM (inactive); with HOP-92, 4.85 µM (inactive); with RPMI-8226 it was 1.61 µM (inactive); with OVCAR-8, 2.53 µM (inactive). Also, the GI50 in the experiment on NCI-H23 was 1.3 µM (inactive); in the experiment on NCI-H522, 1.75 µM (inactive); in the experiment on IGROV-1, 1.42 µM (inactive); in the experiment on HL-60 it was 0.207 µM (active); in the experiment with HT-29, 2.41 µM (inactive).
With `CCCCCCC(C)OC(=O)/C=C(\CC(=O)OC(C)CCCCCC)C(=O)OC(C)CCCCCC` (stereo unspecified), the GI50 in the experiment on LOX IMVI, with SK-MEL-2, in the experiment with MOLT-4, in the experiment with TK-10, in the experiment with SK-OV-3 and in the experiment on Malme-3M was > 100 µM (inactive) in each case. Besides, the GI50 in the experiment with A549, in the experiment with HOP-92, in the experiment with RPMI-8226, in the experiment on OVCAR-8, in the experiment with NCI-H23 and with NCI-H522 was > 100 µM (inactive) each time. In addition, the GI50 with IGROV-1, in the experiment with HL-60 and with HT-29 was > 100 µM (inactive) throughout.
Turning to `CN(C)c1nc(N(C)C)nc(N(C)C23CC4CC(CC(C4)C2)C3)n1`, the GI50 with SK-MEL-2 was 25.1 µM (inactive); in the experiment with SK-OV-3, 17.9 µM (inactive); in the experiment with Malme-3M it was 33 µM (inactive); with SNB-19, 31.7 µM (inactive); in the experiment on A549, 39.3 µM (inactive); with KM12, 44.5 µM (inactive). For the same compound, the GI50 in the experiment with HOP-92 is 21.8 µM (inactive); with MDA-MB-435 it was 40.2 µM (inactive); in the experiment on RPMI-8226, 23.7 µM (inactive); in the experiment on OVCAR-8 it was 32.1 µM (inactive); in the experiment with NCI-H23, 13.4 µM (inactive); with NCI-H522, 16.9 µM (inactive). Besides, the GI50 is 17.1 µM (inactive) in the experiment with IGROV-1 and > 100 µM (inactive) in the experiment with NCI/ADR-RES.
For the compound `COC1OC(COCc2ccc(Cl)cc2)C(OCc2ccc(Cl)cc2)C1O` (stereo unspecified), the GI50 was 16.9 µM (inactive) in the experiment on LOX IMVI; 16.3 µM (inactive) with SK-MEL-2; 20.2 µM (inactive) with MOLT-4; 25.5 µM (inactive) with TK-10; 33.9 µM (inactive) in the experiment with SK-OV-3; 15.8 µM (inactive) with Malme-3M. The GI50 is 18 µM (inactive) in the experiment with SNB-19; 17.3 µM (inactive) in the experiment with A549; 15 µM (inactive) in the experiment on KM12; 11.2 µM (inactive) with HOP-92; 23.9 µM (inactive) in the experiment on RPMI-8226; 26.2 µM (inactive) in the experiment on OVCAR-8. The GI50 was 15.8 µM (inactive) in the experiment with NCI-H23; 12.8 µM (inactive) in the experiment with NCI-H522; 22.8 µM (inactive) in the experiment with IGROV-1; 11.6 µM (inactive) in the experiment on HL-60; 17.9 µM (inactive) in the experiment with HT-29.
Regarding `CC(=O)/C(=C/NC(=S)c1ccncc1)C(=O)Nc1ccccc1C`, the GI50 in the experiment on LOX IMVI, in the experiment with SK-MEL-2, with TK-10, in the experiment with SK-OV-3, in the experiment on SNB-19 and with A549 was > 100 µM (inactive) each time. The GI50 in the experiment on KM12, with HOP-92, with MDA-MB-435, in the experiment with OVCAR-8, with NCI-H23 and in the experiment on IGROV-1 was > 100 µM (inactive) each time. The GI50 with NCI/ADR-RES, in the experiment on HL-60 and in the experiment on HT-29 was > 100 µM (inactive) throughout.
As to `N#CC(C(=O)/C(=N/N)C(C#N)c1ccc(Cl)cc1)c1ccc(Cl)cc1` (stereo unspecified), the GI50 with LOX IMVI, in the experiment with SK-MEL-2, in the experiment with MOLT-4, in the experiment on TK-10, in the experiment with Malme-3M and with SNB-19 was > 100 µM (inactive) in each case. Also, the GI50 in the experiment with A549, in the experiment on KM12, with HOP-92, in the experiment on RPMI-8226, in the experiment with OVCAR-8 and in the experiment with NCI-H23 was > 100 µM (inactive) each time. Also, the GI50 with NCI-H522, with IGROV-1, in the experiment on HL-60 and with HT-29 was > 100 µM (inactive) in each case.
